{"source": "the OPERA property sets (Mansouri et al. 2018)", "data": [{"settings": "not given", "units": {"boiling point": "°C", "melting point": "°C"}, "values": [{"compound": "CN1CCCC1=O", "boiling point": 202, "log10 Henry constant (atm·m³/mol)": -8.49, "log10 vapour pressure (mmHg)": -0.462, "melting point": -24, "ready biodegradability": "readily biodegradable"}, {"compound": "CCC(C)C(C)CC", "note": "(configuration not stated)", "boiling point": 118, "log10 biodegradation half-life (days)": 0.477, "log10 vapour pressure (mmHg)": 1.34}, {"compound": "Nc1cccc(-n2ccccc2=O)c1", "melting point": 183}, {"compound": "O=C1CCC(=O)CC1", "melting point": 78}, {"compound": "CCCCC(CC)COC(=O)CCCCCCCC(=O)OCC(CC)CCCC", "note": "(configuration not stated)", "melting point": -78, "ready biodegradability": "readily biodegradable"}, {"compound": "N#CN", "log10 vapour pressure (mmHg)": -2.43, "melting point": 44}, {"compound": "CNC(=O)Oc1ccc2c(c1)[C@]1(C)CCN(C)OC1N2C", "note": "(some centres not stated)", "melting point": 129}, {"compound": "Cc1cc(-c2ccccc2)nnc1NCCN1CCOCC1", "melting point": 122}, {"compound": "CCC(=O)O[C@]1(C(=O)CCl)[C@@H](C)C[C@H]2[C@@H]3CCC4=CC(=O)C=C[C@]4(C)[C@@]3(F)[C@@H](O)C[C@@]21C", "melting point": 196}, {"compound": "C=C(C(=O)O)c1ccccc1", "melting point": 106, "ready biodegradability": "readily biodegradable"}, {"compound": "COC(=O)c1ccccc1", "boiling point": 199, "log10 Koc (L/kg)": 2.1, "log10 vapour pressure (mmHg)": -0.42, "melting point": -15}, {"compound": "CC(C)(C(=O)O)C(C)(C)C(=O)O", "melting point": 200}, {"compound": "CC(C)COC(=O)Cc1ccccc1", "boiling point": 247}, {"compound": "CCCC(C)CCN", "note": "(configuration not stated)", "boiling point": 149}, {"compound": "NS(=O)(=O)c1cc2c(cc1Cl)NC(CC1CCCC1)NS2(=O)=O", "note": "(configuration not stated)", "melting point": 238}, {"compound": "CCN(CC)CCOC(=O)C1(C2CCCCC2)CCCCC1.Cl", "melting point": 165}, {"compound": "COc1ccc(C(=O)Cc2c(CCN(C)C)cc3c(c2OC)OCO3)c(C(=O)O)c1OC", "melting point": 138}, {"compound": "Nc1ncnc2[nH]cnc12", "log10 vapour pressure (mmHg)": -10.4}, {"compound": "CCCCC=CC(=O)O", "boiling point": 226, "melting point": -19}, {"compound": "CCC[Si](C)(C)C", "boiling point": 89}, {"compound": "CN", "boiling point": -6.3, "log10 Henry constant (atm·m³/mol)": -4.95, "log10 Koa": 1.9, "log10 vapour pressure (mmHg)": 3.42, "ready biodegradability": "readily biodegradable"}, {"compound": "CCCCOCCOCCOC(=O)CCCCC(=O)OCCOCCOCCCC", "melting point": -47, "ready biodegradability": "readily biodegradable"}, {"compound": "c1ccc2c(c1)Cc1ccccc1O2", "boiling point": 311, "melting point": 100}, {"compound": "CC1=C[C@@H](O)[C@@H]2C[C@H]1C2(C)C", "note": "(racemic)", "melting point": 65}, {"compound": "CCOC(=O)C(Cl)CCl", "note": "(configuration not stated)", "boiling point": 184}, {"compound": "COCCc1ccccn1", "boiling point": 203}, {"compound": "C#C[C@]1(O)CC[C@H]2[C@@H]3CCC4=CCCC[C@@H]4[C@H]3C(=C)C[C@@]21CC", "melting point": 110}, {"compound": "ClCc1ccc2c(c1)OCO2", "melting point": 20.5}, {"compound": "C/C(Cl)=C/C(=O)O", "boiling point": 195, "melting point": 61}, {"compound": "CN(C)CCc1c[nH]c2cccc(OP(=O)(O)O)c12", "melting point": 224}, {"compound": "C=C(C)CN(CC)c1c([N+](=O)[O-])cc(C(F)(F)F)cc1[N+](=O)[O-]", "log10 Koc (L/kg)": 3.6, "log10 vapour pressure (mmHg)": -4.06, "melting point": 55.5}, {"compound": "CCCC(C)C(C)C", "note": "(configuration not stated)", "boiling point": 116, "log10 biodegradation half-life (days)": 1.42, "log10 vapour pressure (mmHg)": 1.37}, {"compound": "FC=C(F)Br", "boiling point": 19}, {"compound": "O=C1OC(=O)c2cccc3cccc1c23", "melting point": 270}, {"compound": "Oc1ccc2ccccc2c1Br", "melting point": 84}, {"compound": "CNC(=S)NCO", "melting point": 89}, {"compound": "CC(C)=NN=C(C)C", "boiling point": 133, "melting point": -12.5}, {"compound": "CC(C)CCC(C)C(C)C", "note": "(configuration not stated)", "boiling point": 156}, {"compound": "ClC(Cl)=C(c1ccc(Cl)cc1)c1ccc(Cl)cc1", "boiling point": 336, "log10 Henry constant (atm·m³/mol)": -4.38, "log10 Koa": 9.68, "log10 Koc (L/kg)": 4.82, "log10 vapour pressure (mmHg)": -5.22, "melting point": 89}, {"compound": "CC1CCCC(=O)C1", "note": "(configuration not stated)", "boiling point": 170, "log10 vapour pressure (mmHg)": 0.176}, {"compound": "CC(N)CN", "note": "(configuration not stated)", "boiling point": 120, "log10 vapour pressure (mmHg)": 1.03}, {"compound": "CC(C)CCCN", "boiling point": 125, "melting point": -94.4}, {"compound": "O=C(O)[C@@H](CO)c1ccccc1", "melting point": 118}, {"compound": "COc1c2c(cc3c1OCO3)CCN(C)C2", "melting point": 56}, {"compound": "O=C1C(=O)c2ccccc2-c2ccccc21", "boiling point": 360, "melting point": 209}, {"compound": "CCC(C)CS", "note": "(configuration not stated)", "boiling point": 116, "log10 vapour pressure (mmHg)": 1.3}, {"compound": "O=C(CCl)c1cccc([N+](=O)[O-])c1", "log10 vapour pressure (mmHg)": -5.06}, {"compound": "C[C@H](Oc1ccccc1)C(=O)O", "boiling point": 266, "melting point": 118}, {"compound": "C[C@@H]1CC[C@H](O)C1", "boiling point": 148}, {"compound": "CC(=O)OCCCCOC(C)=O", "boiling point": 229, "melting point": 12}, {"compound": "C=CC1CC=CCC1", "note": "(configuration not stated)", "boiling point": 128, "log10 vapour pressure (mmHg)": 1.2, "melting point": -109, "ready biodegradability": "not readily biodegradable"}, {"compound": "Clc1cccc2nccc(Cl)c12", "melting point": 118}, {"compound": "COOC", "boiling point": 14}, {"compound": "Cc1ccc(NCc2ccccc2)cc1", "boiling point": 319, "melting point": 19.5}, {"compound": "OCC#CCO", "boiling point": 238, "log10 vapour pressure (mmHg)": -3.25, "melting point": 50}]}, {"settings": "fish", "values": [{"compound": "Cc1cc(Cc2cc(C)cc(C(C)(C)C)c2O)c(O)c(C(C)(C)C)c1", "log10 BCF": 2.74, "log10 biotransformation half-life (days)": 0.03}, {"compound": "CCOP(=S)(NC(C)C)Oc1ccccc1C(=O)OC(C)C", "note": "(configuration not stated)", "log10 BCF": 2.12, "log10 biotransformation half-life (days)": -0.51}, {"compound": "CCC(C)(NC(=O)c1cc(Cl)c(C)c(Cl)c1)C(=O)CCl", "note": "(configuration not stated)", "log10 biotransformation half-life (days)": 0.16}, {"compound": "O=[N+]([O-])c1ccc(Cl)c(S(=O)(=O)[O][Na])c1", "log10 BCF": 0.48}, {"compound": "Clc1cccc(Cl)c1Cl", "log10 BCF": 2.82, "log10 biotransformation half-life (days)": 0.92}, {"compound": "Clc1ccccc1-c1c(Cl)cccc1Cl", "log10 biotransformation half-life (days)": 2.5}, {"compound": "ClC1C(Cl)C(Cl)C(Cl)C(Cl)C1Cl", "note": "(configuration not stated)", "log10 biotransformation half-life (days)": 1.49}, {"compound": "ClC(Cl)=C(c1ccc(Cl)cc1)c1ccc(Cl)cc1", "log10 BCF": 4.08, "log10 biotransformation half-life (days)": 1.71}, {"compound": "C=CC1CC=CCC1", "note": "(configuration not stated)", "log10 BCF": 2.22, "log10 biotransformation half-life (days)": -0.41}]}]}
